Results from patent US20220339187A1, “ANTIMICROBIAL PEPTIDE-SELENIUM NANOPARTICLES” (The University of Melbourne, priority 2019, published 2022).

Assays:
E. faecalis ATCC 29212 [1] = assay: Membrane potential change test (BacLight, DiOC2(3)); format: cell-based, Enterococcus faecalis; settings: 6.25 or 12.5 μg/ml
Protocol: Membrane potential change was measured using a BacLight Bacterial Membrane Potential Kit (Invitrogen). The bacterial strain methicillin-sensitive S. aureus (MSSA) ATCC 29213, E. faecalis ATCC 29212, E. coli ATCC 25922 were cultured in MHB at 37° C. 50 μL of different concentrations of Se NPs, Se NP-ε-PL or pure ε-PL in PBS solution was added into each well of 96-well microplates. 50 μL MHB with 2.5×10^6 cells/mL bacteria was then added into each well. 50 μL MHB with 2.5×10^6 cells/mL bacteria was added to 50 μL PBS to act as untreated control. Carbonyl cyanide 3-chlorophenylhydrazone (CCCP) was added to untreated control at a final concentration of 5 μM to act as fully depolarized control. 3,3′-Diethyloxacarbocyanine Iodide (DiOC2(3)) was added to all wells at a final concentration of […]. […] The untreated (polarized) and CCCP-treated (fully depolarized) controls were used to determine the percentage of depolarized cells. Two independent experiments were done for this test, and two technical replicates were adopted for each independent experiment.

E. faecalis ATCC 29212 [2] = assay: ROS production test (CellROX Orange, flow cytometry); format: cell-based, Enterococcus faecalis; settings: 6.25 or 12.5 μg/ml
Protocol: (§1) The bacterial strains methicillin-sensitive S. aureus (MSSA) ATCC 29213, E. faecalis ATCC 29212, E. coli ATCC 25922 were cultured in MHB at 37° C. 50 μL of different concentration of Se NPs, Se NP-ε-PL or pure ε-PL in PBS solution was added into each well of a 96-well microplate. 50 μL MHB with 2.5×10^6 cells/mL bacteria was then added into each well. After 90 min incubation at 37° C., CellROX® Orange Reagent was added into each well at a final concentration of 750 nM. The cells were incubated for a further 1 h. The fluorescence from the CellROX Orange Reagent was measured on FL-3 (red fluorescence channel) using the Cell Lab Quanta SC MPL flow cytometer (Beckman Coulter). Two independent experiments were done for this test, and two technical replicates were adopted for each independent experiment.

[3] = system: methicillin-sensitive Staphylococcus aureus (S. aureus) ATCC 29213; assay: Bacterial growth inhibition test / MIC calculation; format: cell-based; settings: MHB, 37° C., growth curves, linear regression, mean ± s.d.
Description: (§2) The bacterial strains methicillin-sensitive Staphylococcus aureus (S. aureus) ATCC 29213, methicillin-resistant Staphylococcus aureus (MRSA) ATCC 43300, Enterococcus faecalis (E. faecalis) ATCC 29212, Escherichia coli (E. coli) ATCC 25922, Acinetobacter baumannii (A. baumannii) 2208 ATCC19606, Pseudomonas aeruginosa (P. aeruginosa) strain PAO1-LAC ATCC 47085, Klebsiella pneumoniae (K. pneumoniae) ATCC 13883 and multidrug-resistant K. pneumoniae (MDR), were obtained from the culture collection of the Oral Health Cooperative Research Centre, The Melbourne Dental School, University of Melbourne, Australia. Bacteria were cultured in Mueller Hinton Broth (MHB) at 37° C. 50 μL of suspensions with the desired concentrations of Se NPs, Se NP-ε-PL or pure ε-PL in PBS solution was added to each well of 96-well microplates, then 50 μL MHB with 2.5×10^6 bacteria/mL were added into each well. The plate was put into an iEMS microplate reader (Pathtech Pty Ltd, Melbourne, Australia) at a temperature of 37° C. to monitor bacterial growth by measuring the absorbance at wavelength of 630 nm for 24 h. Background absorbance values due to the Se NP solutions were subtracted from the measured absorbance values.
(§3) The absorbance values from bacteria growth curves at the time when the stationary phase starts (tsps) were taken and calculated as a percentage of the untreated control (Z=OD5/OD6×100%, where OD5 represents absorbance at tsps of experimental groups and OD6 represents the absorbance at tsps of the negative control group; all absorbance values had the culture medium background values subtracted). Concentration-inhibition curves were plotted with the percentages of absorbance, and linear regression analysis was adopted to determine the MIC at which Z becomes zero.

[4] = system: Enterococcus faecalis (E. faecalis) ATCC 29212; assay: Bacterial growth inhibition test / MIC calculation; format: cell-based; settings: MHB, 37° C., growth curves, linear regression, mean ± s.d.
Description: as §2, §3

[5] = system: methicillin-resistant Staphylococcus aureus (MRSA) ATCC 43300; assay: Bacterial growth inhibition test / MIC calculation; format: cell-based; settings: MHB, 37° C., growth curves, linear regression, mean ± s.d.
Description: as §2, §3

[6] = system: Acinetobacter baumannii (A. baumannii) 2208 ATCC19606; assay: Bacterial growth inhibition test / MIC calculation; format: cell-based; settings: MHB, 37° C., growth curves, linear regression, mean ± s.d.
Description: as §2, §3

[7] = system: Klebsiella pneumoniae (K. pneumoniae) ATCC 13883; assay: Bacterial growth inhibition test / MIC calculation; format: cell-based; settings: MHB, 37° C., growth curves, linear regression, mean ± s.d.
Description: as §2, §3

[8] = system: Pseudomonas aeruginosa (P. aeruginosa) strain PAO1-LAC ATCC 47085; assay: Bacterial growth inhibition test / MIC calculation; format: cell-based; settings: MHB, 37° C., growth curves, linear regression, mean ± s.d.
Description: as §2, §3

[9] = system: methicillin-sensitive S. aureus (MSSA) ATCC 29213; assay: ROS production test (CellROX Orange, flow cytometry); format: cell-based, Staphylococcus aureus; settings: 6.25 or 12.5 μg/ml
Protocol: as §1

[10] = system: human dermal fibroblast cells (HDF); assay: Lactate Dehydrogenase (LDH) release assay; format: cell-based; settings: concentration of up to 50 μg/mL, 6 h
Protocol: LDH is released from cells into the medium when cell lysis occurs. The amount of LDH released to the medium was measured using the Cyto Tox 96® nonradioactive assay (Promega, Madison, Wis., USA) following the manufacturer's instructions. The HDF cells were cultured in a 96-well microplate for 24 h, before the old medium was replaced with DMEM with including either Se NPs, Se NP-ε-PL or pure ε-PL. Pure DMEM was used as negative control. The microplate was put back into the incubator for 6 h. For the maximum LDH release control, HDF cells were lysed using 1× lysis solution for 45 minutes before adding Cyto Tox 96 reagent. Cyto Tox 96 reagent was then added to the wells and the microplate was incubated for a further 30 minutes. The reaction was then stopped by adding stop solution. A microplate reader (M200 PRO, Tecan) was utilized to test absorbance at 490 nm. The cytotoxicity (Y) was calculated using the following formula: […]
OD3 represents the mean absorbance of experimental groups, and OD4 represents the mean absorbance of the maximum LDH release control group. All absorbance values are after subtraction of the culture medium background values.

ε-poly-L-lysine [ε-PL]
depolarisation of cell membrane (E. faecalis ATCC 29212 [1]): depolarized cell membranes
ROS production (high ROS production cells) (E. faecalis ATCC 29212 [2]): almost no promoting effects on ROS production
MIC [3]: 7.5 ± 1.0 µg/mL
MIC [4]: 27.1 ± 2.2 µg/mL
MIC [5]: 11.6 ± 2.0 µg/mL
MIC [6]: 21.6 ± 7.0 µg/mL
MIC [7]: 12.0 ± 0.6 µg/mL
MIC [8]: 9.5 ± 3.6 µg/mL
ROS production (high ROS production cells) [9]: slight promotion of ROS production
LDH released from HDF cells compared with untreated control [10]: no significant difference to the untreated control
